For assay [1], the system named is 5-hydroxytryptophan-induced tremors in mice. The experiment in a line: Potentiation of 5-hydroxytryptophan-induced behavioral symptoms (tremors) in vivo. More on the design: species or system mouse (Swiss-Webster CD). To be noted: Mus musculus.
Description: The mice were rated for the presence of this symptom by a "blinded observer" at 10-20 min. after 5HTP treatment.
Assay [2] has as its system Behavioral Despair in mice. The experiment in a line: Reduction of behavioral despair in vivo (modified Porsolt method). More on the design: species or system mouse (Swiss-Webster CD). The conditions noted are these: for ED50: Mus musculus, sc, mice, subcutaneous. Here is the method: A modification of the procedure described by Porsolt et al., Arch. Int. […] (Charles River Laboratories, Inc.; Wilmington, Mass.) were housed under standard laboratory conditions for at least one week prior to experimentation. Groups of 10 mice were then injected subcutaneously with either a given dosage of the named test compound or vehicle (5% Emulphor: 5% ethanol: 90% normal saline). One hour later the mice were placed individually in 1 liter beakers containing 7 cm. of 25° C. water. Beginning at 2 min. after immersion, each mouse was observed every 30 sec. for the presence of immobility, characterized as floating motionless in the water. A total of ten observations were made, each being scored as "0=animal moving, swimming, attempting to escape" or "1=animal immobile". The number of positive observations for each mouse was then totaled and a mean immobility score calculated for the group of ten.

The test system of assay [3] is Synaptosomal Uptake of Dopamine (DA), rat corpus striatum. Description: Blockade of synaptosomal uptake of dopamine (DA) in vitro. It counts as biochemical, rat (Sprague-Dawley CD). How it is done:
(§1) Sprague-Dawley CD male rats weighing 180-220 g. (Charles River Laboratories, Inc.; Wilmington, Mass.) were used in this procedure. A crude synaptosomal fraction of rat corpus striatum (for 5HT and DA uptake) or hypothalmus (for NE uptake) tissue was prepared by homogenizing tissue (25 ml./g. wet) in ice-cold 0.32M sucrose containing 1 mg./ml. glucose, 0.0001M EDTA and tris(hydroxymethyl)aminomethane to pH 7.4. The homogenate was centrifuged at 1000 × g for 10 min. at 0°-4° C., the pellet discarded and the supernatant centrifuged at 17,000 × g for 20 min. at 0°-4° C. The resulting pellet was resuspended in the ice-cold 0.32M sucrose pH 7.4 solution at 10 ml./g. original tissue (wet) for corpus striatum and 5 ml./g. original tissue (wet) for hypothalmus. […] After incubation, the mixtures were filtered through 0.45 micron Millipore filters and the filters washed with the incubation buffer. […] Uptake was calculated as picomoles 5HT, DA or NE per mg. protein (protein was determined by measurement with Folin phenol reagent).

Assay [4] deals with Synaptosomal Uptake of Serotonin (5HT), rat corpus striatum. The experiment in a line: Blockade of synaptosomal uptake of serotonin (5HT) in vitro. Type of assay: biochemical, rat (Sprague-Dawley CD). To be noted: 5HT uptake, Examples 26-49. How it is done:
as §1

In assay [5] the test system is Synaptosomal Uptake of Norepinephrine (NE), rat hypothalmus. Description: Blockade of synaptosomal uptake of norepinephrine (NE) in vitro. It counts as biochemical, rat (Sprague-Dawley CD). Here is the method:
as §1

Setting [6] is: mice, oral, read-out: ED50 (tremors), no observed tremors.
[7] abbreviates: Examples 71-77, read-out: MPE50.
Setting [8] is: po, read-out: ED50 (tremors), no observed tremors.
Where [9] appears, read: read-out: MPE50, footnoted no observed effect on immobility.
The mark [10] stands for this setting: po, 1 h, read-out: ED50 (tremors).
[11] abbreviates: 1 h, mice, oral, 100 mg./kg. i.p. 5HTP one hour later, read-out: ED50 (tremors).

Structures can show the parent of a compound that is named as a salt. Where two headings read alike, the source gives them in different places. Where only a bound is given, the exact number is not on record here.

For the compound `CN[C@H]1CC[C@@H](c2ccccc2OC)c2ccccc21` (relative stereo) [Example 18], the ED50 in assay [1] (setting [6]) and in assay [2] (setting [7]) was over 32 mg/kg in each case. Moreover, the IC50 in assay [3] (Examples 26-49) came out at 11 µM; in assay [4], 4.2 µM; in assay [5] (Examples 26-49) it was 2.3 µM.
In the case of `CN[C@@H]1CC[C@H](c2ccc(Cl)c(C(F)(F)F)c2)c2ccccc21` [Example 14], the ED50 in assay [1] (setting [6]) is over 32 mg/kg. Besides, the IC50 in assay [3] (Examples 26-49) worked out at 0.55 µM; in assay [5] (Examples 26-49), 2.4 µM.
Turning to `CN[C@H]1CC[C@@H](c2ccc(Cl)cc2)c2ccc(Cl)cc21` (relative stereo) [Example 15, Cis-(1S)(1R)-N-methyl-4-(4-chlorophenyl)-7-chloro-1,2,3,4-tetrahydro-1-naphthalenamine Hydrochloride], the IC50 in assay [3] (Examples 26-49) worked out at 1.3 µM; in assay [4] it was 0.3 µM; in assay [5] (Examples 26-49), 2.2 µM.
In the case of `CN[C@H]1CC[C@@H](c2ccc(Cl)cc2)c2ccc(OC)cc21` (relative stereo) [Example 21, Cis-(1S) (1R)-N-methyl-4-(4-chlorophenyl)-7-methoxy-1,2,3,4-tetrahydro-1-naphthalenamine Hydrochloride], the IC50 in assay [3] (Examples 26-49) was 0.44 µM; in assay [4], 0.19 µM; in assay [5] (Examples 26-49), 0.47 µM.
Consider `CN[C@@H]1CC[C@H](c2ccc(Cl)cc2)c2ccccc21.Cl` (relative stereo) [Example 5, Cis-N-methyl-4-(4-chlorophenyl)-1,2,3,4-tetrahydro-1-naphthalenamine Hydrochloride], for which the ED50 in assay [1] (setting [6]) is over 10 mg/kg. In assay [5] (Examples 26-49, Hydrochloride), this compound came in with an IC50 of 5 µM.
`CN[C@H]1CC[C@@H](c2ccccc2)c2ccccc21` (relative stereo) [Comparative Example, Cis(1S) (1R)N--methyl-4-phenyl-1,2,3,4-tetrahydro-1-naphthalenamin hydrochloride, reference compound]: the ED50 in assay [1] (setting [8]) and in assay [2] (setting [9]) was over 32 mg/kg in each case. The values for the IC50 in assay [3] (Examples 26-49), in assay [4] and in assay [5] (Examples 26-49) were 5.1 µM, 3.5 µM and 1.9 µM, respectively.
Turning to `CN[C@@H]1CC[C@H](c2cccc(C(F)(F)F)c2)c2ccccc21` (relative stereo) [Example 11, Cis-N-methyl-4-(3-trifluoromethyl-phenyl)-1,2,3,4-tetrahydro-1-naphthalenamine], the ED50 was 10 to 32 mg/kg in assay [1] (setting [10]) and 42 mg/kg in assay [2] (setting [7]). The “% MPE” value in assay [2] (32.0 mg./kg. subcutaneous) is recorded as 45%; in assay [2] (56.0 mg./kg. subcutaneous, apparent overdosage), 10%. The IC50 amounted to 2.5 µM in assay [3] (Examples 26-49), 0.25 µM in assay [4] and 2.5 µM in assay [5] (Examples 26-49).
For the compound `CN[C@@H]1CC[C@H](c2ccc(Cl)cc2)c2ccccc21` (relative stereo) [Example 6, Cis-N-methyl-4-(4-chlorophenyl)-1,2,3,4-tetrahydro-1-naphthalenamine Hydrochloride], the IC50 in assay [3] (Examples 26-49, Hydrochloride) is 1.5 µM; in assay [5] (Examples 26-49, Hydrochloride), 1.2 µM.
`CN[C@H]1CC[C@@H](c2ccc(Cl)c(Cl)c2)c2ccccc21` (relative stereo) [Example 1, Cis-(1S)(1R)-N-methyl-4-(3,4-dichlorophenyl)-1,2,3,4-tetrahydro-1-naphthalenamine Hvdrochloride]: the ED50 in assay [1] (setting [10]) is 3.2 to 5.6 mg/kg; in assay [2] (setting [7]), 4.5 mg/kg.
As to `CN[C@H]1CC[C@@H](c2ccc(OC)cc2)c2ccccc21` (relative stereo) [Example 17, Cis-(1S)(1R)-N-methyl-4-(4-methoxyphenyl)-1,2,3,4-tetrahydro-1-naphthalenamine Hydrochloride], the IC50 in assay [3] (Examples 26-49) turned out to be 4.2 µM; in assay [5] (Examples 26-49), 3 µM.
Consider `CN[C@H]1CC[C@@H](c2cccc(OC)c2)c2ccccc21` (relative stereo) [Example 19], for which the figures for the IC50 in assay [3] (Examples 26-49), in assay [4] and in assay [5] (Examples 26-49) were 5 µM, 7.6 µM and 1.4 µM, respectively.
In the case of `CN(C)[C@H]1CC[C@@H](c2ccc(C(F)(F)F)cc2)c2ccccc21` (relative stereo) [Example 23], in assay [1] (setting [10]), the ED50 was 32 to 56 mg/kg. Moreover, the IC50 in assay [3] (Examples 26-49) was 12 µM; in assay [5] (Examples 26-49), 14 µM.
Turning to `CN[C@@H]1CC[C@H](c2ccc(Cl)c(C(F)(F)F)c2)c2ccccc21` (relative stereo) [Example 12, Cis-N-methyl-4-(3-trifluoromethyl-4-chlorophenyl)-1,2,3,4-tetrahydro-1-naphthalenamine], the ED50 in assay [1] (setting [11]) was in the range of 1 to 3.2 mg/kg. This compound also returned an IC50 in assay [3] (Examples 26-49) of 1.5 µM.
For `CN[C@H]1CC[C@@H](c2ccc(C(F)(F)F)cc2)c2ccccc21` [Example 9], the ED50 in assay [1] (setting [11]) is under 32 mg/kg. Also, the IC50 was 6.4 µM in assay [3] (Examples 26-49) and 9.4 µM in assay [5] (Examples 26-49).
`CN[C@H]1CC[C@@H](c2ccc(Cl)c(Cl)c2)c2ccccc21.Cl` [Example 2, Cis-(1S)-N-methyl-4-(3,4-dichlorophenyl)-1,2,3,4-tetrahydro-1-naphthalenamine Hydrochloride]: the “% MPE” value in assay [2] (0.10 mg./kg. subcutaneous) is 7.9%; in assay [2] (0.32 mg./kg. subcutaneous), 24%; in assay [2] (1.00 mg./kg. subcutaneous) it was 17%; in assay [2] (3.20 mg./kg. subcutaneous) it was 41%; in assay [2] (10.0 mg./kg. subcutaneous), 57%; in assay [2] (17.8 mg./kg. subcutaneous) it was 57%. Further, the “% MPE” value in assay [2] (32.0 mg./kg. subcutaneous) is 66%.
`CN(C)[C@H]1CC[C@@H](c2cccc(C(F)(F)F)c2)c2ccccc21` (relative stereo) [Example 22, Cis-(1S)(1R)-N,N-dimethyl-4-(3-trifluoromethylphenyl)-1,2,3,4-tetrahydro-1-naphthalenamine Maleate]: the ED50 in assay [1] (setting [10]) is 3.2 to 10 mg/kg; in assay [2] (setting [9]) it was over 56 mg/kg. Moreover, the IC50 in assay [3] (Examples 26-49) was 7 µM; in assay [4], 0.19 µM; in assay [5] (Examples 26-49), 0.89 µM.
`CN[C@H]1CC[C@@H](c2ccc(Cl)cc2Cl)c2ccccc21` (relative stereo) [Example 20, Cis-(1S)(1R)-N-methyl-4-(2,4-dichlorophenyl)-1,2,3,4-tetrahydro-1-naphthalenamine Hydrochloride]: the IC50 was determined as 1.7 µM in assay [3] (Examples 26-49) and 0.31 µM in assay [5] (Examples 26-49).
`CN[C@H]1CC[C@@H](c2ccc(Cl)c(C(F)(F)F)c2)c2ccccc21` [Example 13]: the ED50 in assay [1] (setting [10]) lay within 3.2 to 10 mg/kg. Moreover, the IC50 in assay [3] (Examples 26-49) was determined as 6.8 µM; in assay [5] (Examples 26-49), 3.6 µM.
As for `CN[C@H]1CC[C@@H](c2ccc(F)cc2)c2ccccc21` (relative stereo) [Example 7, Cis-(1S)(1R)-N-methyl-4-(4-fluorophenyl)-1,2,3,4-tetrahydro-1-naphthalenamine Hydrochloride], the results for the ED50 in assay [1] (setting [8]) and in assay [2] (setting [7]) were over 32 mg/kg and 138 mg/kg, respectively. In addition, the IC50 is 4.7 µM in assay [3] (Examples 26-49) and 2.3 µM in assay [5] (Examples 26-49).
Take `CN[C@@H]1CC[C@H](c2ccc(Cl)cc2)c2ccccc21.Cl` (relative stereo) [Example 4, Cis-N-methyl-4-(4-chlorophenyl)-1,2,3,4-tetrahydro-1-naphthalenamine Hydrochloride]: in assay [1] (setting [10]), the ED50 is 10 to 32 mg/kg.
For `CN[C@@H]1CC[C@H](c2ccc(C(F)(F)F)cc2)c2ccccc21` [Example 10], in assay [1] (setting [6]), the ED50 is over 32 mg/kg. Also, the results for the IC50 in assay [3] (Examples 26-49), in assay [4] and in assay [5] (Examples 26-49) were 5.6 µM, 2.2 µM and 12 µM, respectively.
For `CN(C)[C@@H]1CC[C@H](c2ccc(Cl)cc2)c2ccccc21` (relative stereo) [Example 24, Cis-N,N-dimethyl-4-(4-chlorophenyl)-1,2,3,4-tetrahydro-1-naphthalenamine], the IC50 was determined as 5.6 µM in assay [3] (Examples 26-49) and 1.2 µM in assay [5] (Examples 26-49).
Consider `CN[C@H]1CC[C@@H](c2ccc(Br)cc2)c2ccccc21` (relative stereo) [Example 16, Cis-(1S)(1R)-N-methyl-4-(4-bromophenyl)-1,2,3,4-tetrahydro-1-naphthalenamine Hydrochloride], for which the values for the IC50 in assay [3] (Examples 26-49), in assay [4] and in assay [5] (Examples 26-49) were 1.6 µM, 0.19 µM and 1.4 µM, respectively.
Take `CN[C@H]1CC[C@@H](c2ccc(C(F)(F)F)cc2)c2ccccc21` (relative stereo) [Example 8]: in assay [1] (setting [11]), the ED50 fell in the range of 10 to 32 mg/kg. The IC50 in assay [3] (Examples 26-49) was found to be 7.8 µM; in assay [4], 0.82 µM; in assay [5] (Examples 26-49), 9.8 µM.

As a reminder, the IC50 is the midpoint of a concentration-inhibition curve. A low value points to inhibition by little substance.

The record behind these values is patent US4536518A, “Antidepressant derivatives of cis-4-phenyl-1,2,3,4-tetrahydro-1-naphthalenamine” (priority 1979, dated 1985).
